pEC50: −log10 of the molar value. Like-named read-outs stand apart in the source and are kept apart here.
Legend:
asthma patients [1] = experiment: Phase II clinical study CEP-1347-201: methacholine challenge test (MCT; PC20 ANCOVA, survival analysis, model based EC50 analysis, AUC analysis); format: in vivo, human; settings: for Percent of subjects with an increase in the AUC for the methacholine dose-response curve (AUCPost > AUCPre): after 8 weeks, placebo 33%; for median event-causing (20% drop in FEV1) methacholine concentration, PC20 survival analysis at week 8: placebo 3.0, log-rank p=0.02; for % Shift in EC50 (methacholine): model based analysis, vs placebo EC50; for Patients with Censored PC20 / Patients with PC20: week 8; for PC20 Change from Baseline at Week 8, LS Mean: ANCOVA, actual + imputed PC20
Description: A methacholine challenge test (MCT) was conducted at baseline and at the end of the 8-week treatment period in a subset of patients. The MCT test was not undertaken if, in the opinion of the investigator, MCT administration was contraindicated based on the patient's condition or the patient declined to participate. Patients that underwent a MCT were exposed to escalating doses of methacholine (methacholine administration typically leads to an acute decrease in lung function) and changes in lung function were measured by FEV1. The dose of methacholine was escalated until FEV1 decreased by 20% or the maximum MCT dose was reached. The dose of methacholine that produced a 20% decrease in FEV1 (PC20) was recorded. The change in FEV1 associated with each administration/dose of methacholine was recorded
The methacholine challenge test was conducted in a subset of patients at baseline and at the end of the 8-week treatment period.
In these cases the highest methacholine dose the patient received was assumed to be the PC20.
A 20% drop in FEV1 (PC20) was considered to be an event observation and the methacholine dose was treated as the “survival time” variable in the survival analysis. […] A Kaplan-Meier's product-limit estimate of the survival curve was generated; treatment effects were compared using a standard log-rank test; and baseline MCT information was ignored.
To make use of all methacholine-FEVI data a post hoc, model based analysis (i.e., nonlinear mixed effects model) was undertaken. The goal of the model based analysis was to estimate the magnitude of CEP-1347 effect on the patient's sensitivity to methacholine.
• the approach is more complex and less widely accepted compared to ANCOVA or survival analysis approaches • assumptions regarding the model structure are necessary • the suppressive effect of methacholine on lung functions was assumed to follow a classic inhibitory EMAX model, • the attenuating effect of CEP-1347 was assumed to shift an individual's EC50 or sensitivity to methacholine.
The model based analysis utilized 2202 FEV1 measurements following methacholine dosing. MCT data were available from 123 patients corresponding to approximately 17.9 observations per patient.
FEV1=E0*(1−EMAX*MET^γ/(EC50^γ+MET^γ))+ε(1) (Eq. 1)
Where, E0 was the FEV1 associated with a methacholine dose of 0, MET was the methacholine dose, EMAX was the maximum fractional suppression of FEV1 by methacholine, EC50 was the methacholine concentration at which 50% of maximal suppression was achieved, γ was the Hill coefficient, and ε (1) was the residual error term.
Inter-subject random effects were included on EMAX and EC50. […] Subsequently, the effect of CEP-1347 on the methacholine dose-response was added to the model. […] In other words, this model based approach asks the questions “Does CEP-1347 cause a patient to be less sensitive to methacholine (i.e., increase the individual patient's methacholine EC50)”. For the purposes of this model based analysis equation 2 describes the implementation of the CEP-1347 effect on the attenuation of the methacholine dose-response relationship:
Model selection was done on the basis of the log likelihood criterion (p<0.05) and visual inspection of goodness-of-fit plots. The difference in −2 times the log of the likelihood (−2LL) between a full and reduced model is asymptotically χ^2 distributed with degrees of freedom equal to the difference in number of parameters between the two models.

ICAM-1 = experiment: Phase II clinical study CEP-1347-201: additional biomarkers of inflammation; format: in vivo, human; settings: prior to and 4 and 8 weeks after study drug administration; CEP-1347 vs placebo groups
Description: (§1) Biomarkers of inflammation were measured prior to and 4 and 8 weeks after study drug administration.

MCP-1 = experiment: as above; format: in vivo, human; settings: prior to and 4 and 8 weeks after study drug administration; CEP-1347 vs placebo groups
Description: as §1

VCAM-1 = experiment: as above; format: in vivo, human; settings: prior to and 4 and 8 weeks after study drug administration; CEP-1347 vs placebo groups
Description: as §1

VEGF = experiment: as above; format: in vivo, human; settings: prior to and 4 and 8 weeks after study drug administration; CEP-1347 vs placebo groups
Description: as §1

asthma patients [2] = settings: for patients reporting diarrhea: placebo 8%
[3] = molecular target: choline acetyltransferase (ChAT); settings: cited from earlier work
TNFα = settings: standard in vitro pharmacological testing procedures (WO 97/49406); cited from earlier work

Structure (SMILES): CCSCc1ccc2c(c1)c1c3c(c4c5cc(CSCC)ccc5n5c4c1n2C1CC(O)(C(=O)OC)C5(C)O1)CNC3=O (centres unmarked) [CEP-1347]
- Percent of subjects with an increase in the AUC for the methacholine dose-response curve (AUCPost > AUCPre) (asthma patients [1]; 10 mg BID, Cochran-Mantel-Haenzel p = 0.075, logistic regression p = 0.039): 55%
- median event-causing (20% drop in FEV1) methacholine concentration, PC20 survival analysis at week 8 (asthma patients [1]; 10 mg BID, 95% confidence interval (0.85,+∞)): 3.7 µg/mL
- % Shift in EC50 (methacholine) (asthma patients [1]; 10 mg BID): −40%
- Patients with Censored PC20 (asthma patients [1]; 10 mg BID): 11 (39%) n (% of treatment group)
- Patients with PC20 (asthma patients [1]; 10 mg BID): 17 (61%) n (% of treatment group)
- Percent of subjects with an increase in the AUC for the methacholine dose-response curve (AUCPost > AUCPre) (asthma patients [1]; 25 mg BID): 58%
- median event-causing (20% drop in FEV1) methacholine concentration, PC20 survival analysis at week 8 (asthma patients [1]; 25 mg BID, 95% confidence interval (1.87,+∞)): 6.8 µg/mL
- % Shift in EC50 (methacholine) (asthma patients [1]; 25 mg BID): 21%
- Patients with Censored PC20 (asthma patients [1]; 25 mg BID): 8 (47%) n (% of treatment group)
- Patients with PC20 (asthma patients [1]; 25 mg BID): 9 (53%) n (% of treatment group)
- PC20 change from baseline at week 8 (ANCOVA) (asthma patients [1]; 50 mg BID group): seemingly worsened
- Percent of subjects with an increase in the AUC for the methacholine dose-response curve (AUCPost > AUCPre) (asthma patients [1]; 50 mg BID): 59%
- median event-causing (20% drop in FEV1) methacholine concentration, PC20 survival analysis at week 8 (asthma patients [1]; 50 mg BID, 95% confidence interval (0.6, 3.0)): 0.85 µg/mL
- % Shift in EC50 (methacholine) (asthma patients [1]; 50 mg BID): 43%
- increase of the methacholine EC50 (shift of methacholine-FEV1 dose-response curve to the right), model based analysis (asthma patients [1]; 50 mg BID, nonlinear mixed effects model, effect size estimates imprecise): 43%
- Patients with Censored PC20 (asthma patients [1]; 50 mg BID): 3 (14%) n (% of treatment group)
- Patients with PC20 (asthma patients [1]; 50 mg BID): 18 (86%) n (% of treatment group)
- PC20 Change from Baseline at Week 8, LS Mean (asthma patients [1]; CEP-1347 10 mg BID, p .66): 1.00
- PC20 Change from Baseline at Week 8, LS Mean (asthma patients [1]; CEP-1347 25 mg BID, p .77): 1.84
- PC20 Change from Baseline at Week 8, LS Mean (asthma patients [1]; CEP-1347 50 mg BID, p .02): −1.18
- Summary of MCT analyses: ANCOVA, Results and Comments (asthma patients [1]; PC20 at baseline and week 8): Not significant.
- PC20 change from baseline at week 8 (ANCOVA) (asthma patients [1]; all CEP-1347 groups vs placebo, PC20 imputed as highest methacholine dose where no 20% FEV1 decline): No clinical or statistically significant improvement
- effect on methacholine effects on FEV1, model based analysis (asthma patients [1]; all doses, full vs reduced model p=0.02): dose related attenuation
- concentration of ICAM-1 (ICAM-1): No differences
- concentration of MCP-1 (MCP-1): No differences
- concentration of VCAM-1 (VCAM-1): No differences
- concentration of VEGF (VEGF): No differences
- subjects reporting a severe adverse event (asthma patients [2]; 10 mg BID group): 2
- subjects reporting a severe adverse event (asthma patients [2]; 25 mg BID group): 1
- subjects reporting a severe adverse event (asthma patients [2]; 50 mg BID group): 1
- patients reporting diarrhea (asthma patients [2]; CEP-1347 groups, all doses combined): 15%
- subjects reporting a severe adverse event, total (asthma patients [2]; all groups): four
- patients reporting diarrhea (asthma patients [2]; high dose group (50 mg BID)): 20%
- headache incidence (asthma patients [2]; treatment group (all CEP-1347 doses), placebo 5%): 9%
- deaths (asthma patients [2]; whole study): no deaths
- pEC50 ([3]; greater potency than K-252a, read-out: potency (EC50) in spinal cord ChAT assays): 7.30
- efficacy in spinal cord ChAT assays ([3]; greater than K-252a): 250 % of control
- production of TNFα by cultured cells (TNFα): inhibit the production

Reference: patent US20080146540A1, “Methods of diagnosis and treatment for asthma, allergic rhinitis and other respiratory diseases based on haplotype association” (priority 2003, published 2008)
